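Tested at 5 concentrations; 48 h exposure; 96-well plates; endpoints linearly interpolated, else capped at highest concentration. GI50 marks 50% less growth. TGI: total growth inhibition.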
Assays:
Experiment in all cases: NCI tumour cell line growth inhibition, 48 h
OVCAR-8 ovarian = system: OVCAR-8 ovarian
HT29 colon = system: HT29 colon
M14 melanoma = system: M14 melanoma
U251 CNS = system: U251 CNS
HOP-92 NSCLC = system: HOP-92 NSCLC
OVCAR-4 ovarian = system: OVCAR-4 ovarian
TK-10 renal = system: TK-10 renal
SNB-19 CNS = system: SNB-19 CNS
OVCAR-3 ovarian = system: OVCAR-3 ovarian
NCI-H226 lung = system: NCI-H226 lung

SMILES | GI50 (OVCAR-8 ovarian) [µM] | TGI (OVCAR-8 ovarian) [µM] | GI50 (HT29 colon) [µM] | TGI (HT29 colon) [µM] | GI50 (M14 melanoma) [µM] | TGI (M14 melanoma) [µM] | GI50 (U251 CNS) [µM] | TGI (U251 CNS) [µM] | GI50 (HOP-92 NSCLC) [µM] | TGI (HOP-92 NSCLC) [µM] | GI50 (OVCAR-4 ovarian) [µM] | TGI (OVCAR-4 ovarian) [µM] | GI50 (TK-10 renal) [µM] | TGI (TK-10 renal) [µM] | GI50 (SNB-19 CNS) [µM] | TGI (SNB-19 CNS) [µM] | GI50 (OVCAR-3 ovarian) [µM] | TGI (OVCAR-3 ovarian) [µM] | GI50 (NCI-H226 lung) [µM] | TGI (NCI-H226 lung) [µM]
O=c1[nH]c(=O)c2cn[nH]c2[nH]1 | > 100 | > 100 | > 100 | > 100 | > 100 | > 100 | > 100 | > 100 | > 100 | > 100 | > 100 | > 100 | > 100 | > 100 | > 100 | > 100 | > 100 | > 100 | > 100 | > 100
C=CCNC(=O)N(CCCCC(NC(C)=O)C(=O)NCc1ccccc1)Cc1ccccc1 (stereo unspecified) |  | > 100 |  | > 100 |  | > 100 |  | > 100 |  | > 100 |  | > 100 |  | > 100 |  | > 100 |  | > 100 |  | > 100
CN(CCO)CC[C@H](CSc1ccccc1)Nc1ccc(S(=O)(=O)NC(=O)c2ccc(N3CCC([C@@H](O)c4ccccc4-c4ccc(Cl)cc4)CC3)cc2)cc1S(=O)(=O)C(F)(F)F | 11.5 | > 100 | 7.45 | 60.6 | 3.51 | 20.2 | 2.82 | 8.88 | 0.0415 | 0.387 | 17.6 | > 100 | 5.2 | 19.2 | 2.77 | 8.57 | 3.71 | 13 | 2.5 | 7.46
O.O.[NH-]C1(C(=O)O)CCCC1.[NH-]C1(C(=O)O)CCCC1.[Ni+2] |  | > 100 |  | > 100 | 96.7 | > 100 |  | > 100 |  | > 100 |  | > 100 | > 100 | > 100 |  | > 100 |  | > 100 |  | > 100
OC(Cc1ccncc1)C(Cl)(Cl)Cl (stereo unspecified) | > 100 | > 100 | > 100 | > 100 | > 100 | > 100 | > 100 | > 100 | 0.109 | > 100 | > 100 | > 100 | > 100 | > 100 | > 100 | > 100 | 17.4 | > 100 | > 100 | > 100
O=C1C(Cl)=C(Nc2cccc(Cl)c2)C(=O)N1Cc1ccc(Cl)cc1 | 0.833 | 18.5 | 0.758 | 31.3 | 2.11 | 9.94 | 0.312 | 14.2 | 1.3 | 4.96 | 4.68 | > 64.2 | 3.37 | 15.4 | 4.06 | 33 | 0.784 | 6.24 | 0.119 | 1.37
CN(O)C(=O)SCC(NC(=O)CCC(N)C(=O)O)C(=O)NCC(=O)O (stereo unspecified) | > 2000 | > 2000 | > 2000 | > 2000 | > 2000 | > 2000 | > 2000 |  | > 2000 | > 2000 | > 2000 | > 2000 | > 2000 | > 2000 | > 2000 | > 2000 | > 2000 | > 2000 | > 2000 | > 2000
CCN(Cc1cc(Nc2nc(C)cn3c(-c4cn[nH]c4)cnc23)sn1)C(C)(C)CO | 0.0411 | 11 | 0.0725 | 0.812 | 0.0421 | 2.84 | 0.0289 | 2.21 | 0.0119 | 0.0714 | < 0.0108 | 8.38 | 0.0507 | 2.24 | 0.11 | 9.57 | 0.0481 | 2.68 | < 0.0106 | 0.513
O=C(c1ccccc1)c1ccccc1-c1ccccc1 | 4.77 | 52.4 | 0.986 | 14.3 | 1.75 | 13 | 4.21 | 46.2 | 3.36 | 47.1 | 18.7 | > 100 | 6.28 | > 100 | 5.45 | > 100 | 1.72 | 4.55 | 19.6 | > 100
CCOc1cccc(/C=N/N=C2\C(=O)Nc3c(Cl)cc(Cl)cc32)c1O |  | > 100 |  | > 100 |  | > 100 |  | > 100 |  | > 100 |  | > 100 |  | > 100 |  | > 100 |  | > 100 |  | > 100
COc1ccc(-c2nn(-c3cccc(Cl)c3)cc2-c2cc(-c3cccs3)[nH]c(=S)n2)cc1 | 3.15 | > 100 | 3.82 | 13 | 2.81 | 14 | 2.6 | 12.4 | 2.2 | 10.8 | 3.47 | > 100 | 4.55 | 32.8 | 4.93 | > 100 | 3.04 | 9.42 | 3.16 | 54.4
O=C(Nc1ccc([As](=O)(O)O)cc1)Nc1cccc(Cl)c1Cl |  | > 100 |  | > 100 |  | > 100 |  | > 100 |  | > 100 |  | > 100 |  | > 100 |  | > 100 |  | > 100 |  | > 100
ClCc1cccc2c(CCl)cccc12 | 4.29 | 33.6 | 2.88 | 11.2 | 5.95 | 23.4 | 2.89 | 11.6 | 2.83 | 18.7 | 12 | 75.7 | 2.28 | 7.46 | 5.08 | 19.7 | 1.76 | 3.83 | 12 | 30.6
COc1cc(Br)c(C=Nc2cccc3cc(OC)c(OC)cc23)cc1OC |  | > 100 |  | 98.4 |  | > 100 |  | > 100 |  | 98.1 |  | > 100 |  | > 100 |  | > 100 |  | 80.8 |  | 82

— PubChem BioAssay (NCI)
